From US8399681B2, “Substituted aminothiazolone indazoles as estrogen related receptor-alpha modulators” (Janssen Pharmaceutica NV, priority 2009, dated 2013) come the findings set out here.

The target of this test is T1, ERR1 (also known as ERR-α or ERR-1) (Homo sapiens, UniProt P11474).
T1 sequence (P11474 193-421 limits assumed): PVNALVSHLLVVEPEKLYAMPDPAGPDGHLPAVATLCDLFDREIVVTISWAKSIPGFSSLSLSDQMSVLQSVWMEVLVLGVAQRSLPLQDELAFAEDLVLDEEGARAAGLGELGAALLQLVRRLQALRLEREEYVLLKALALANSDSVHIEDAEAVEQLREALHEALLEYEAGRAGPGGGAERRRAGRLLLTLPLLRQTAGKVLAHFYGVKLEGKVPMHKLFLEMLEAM
Briefly: TR-FRET assay (disruption of co-activator peptide binding). The settings on record: 6His-tagged ERR1 LBD, GST-hSRC2 co-activator polypeptide; average of 3 independent experiments. The format is biochemical. In a few lines: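 Compound-induced loss of co-activator recruitment, read by time-resolved FRET (excitation 340 nm; 615 and 665 nm emission) after 4-18 h at 25 °C. Reagents: 6 nM ERR1LBD, 6 nM GST-SRC-2, 30 nM Eu cryptate, 7.5 nM XL665, pH 8 Tris buffer. Values: hyperbolic fits averaged over 3 independent runs.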

Take `C[C@@H]1CN(C2=NC(=O)/C(=C/c3ccc4c(cnn4Cc4ccc(C(F)(F)F)cc4C(F)(F)F)c3)S2)C[C@H](C)N1` [Example 238, 5-({1-[2,4-(trifluoromethyl)benzyl]-1H-indazol-5-yl}methylidene)-2-(3,5-(cis)-dimethylpiperazin-1-yl)-1,3-thiazol-4(5H)-one]: the midpoint of the response, the EC50, lay at 11 nM.

For the molecule `C[C@@H]1CN(C2=NC(=O)/C(=C/c3ccc4c(cnn4Cc4ccc(C(F)(F)F)cc4C(F)(F)F)c3)S2)C[C@H](C)N1C` [Example 239, 5-({1-[2,4-Bis(trifluoromethyl)benzyl]-1H-indazol-5-yl}methylidene)-2-((3R,5S)-3,4,5-trimethylpiperazin-1-yl)-1,3-thiazol-4(5H)-one], the EC50 came out at 18 nM.

Consider `C[C@@H]1CN(C2=NC(=O)/C(=C/c3ccc4c(cnn4Cc4ccc(C(F)(F)F)cc4C(F)(F)F)c3)S2)C[C@H](C)[N+]1(C)C` [Example 240, (2R,6S)-4-[5-({1-[2,4-Bis(trifluoromethyl)benzyl]-1H-indazol-5-yl}methylidene)-4-oxo-4,5-dihydro-1,3-thiazol-2-yl]-1,1,2,6-tetramethylpiperazin-1-ium chloride], for which the response was half-maximal at 9 nM (EC50).

`C[C@@H]1CN(C2=NC(=O)/C(=C/c3ccc4c(cnn4Cc4ccc(Cl)cc4C(F)(F)F)c3)S2)C[C@H](C)N1` [Example 241, 5-({1-[4-Chloro-2-(trifluoromethyl)benzyl]-1H-indazol-5-yl}methylidene)-2-((3R,5S)-3,5-dimethylpiperazin-1-yl)-1,3-thiazol-4(5H)-one] had an EC50 of 4 nM.

Molecule `CN1CCN(C2=NC(=O)/C(=C/c3ccc4c(cnn4Cc4ccc(C(C)(C)O)cc4C(F)(F)F)c3)S2)CC1` [Example 242, 5-({1-[4-(1-Hydroxy-1-methylethyl)-2-(trifluoromethyl)benzyl]-1H-indazol-5-yl}methylidene)-2-(4-methylpiperazin-1-yl)-1,3-thiazol-4(5H)-one] registered a concentration for a half-maximal effect (EC50) of 30 nM.

`C[C@@H]1CN(C2=NC(=O)/C(=C/c3ccc4c(cnn4Cc4ccc(C(C)(C)O)cc4C(F)(F)F)c3)S2)C[C@H](C)N1` [Example 243, 2-((3R,5S)-3,5-Dimethylpiperazin-1-yl)-5-({1-[4-(1-hydroxy-1-methylethyl)-2-(trifluoromethyl)benzyl]-1H-indazol-5-yl}methylidene)-1,3-thiazol-4(5H)-one] returned an EC50 of 38 nM.

Regarding `CC(C)(O)c1ccc(Cn2ncc3cc(/C=C4\SC(N5CCO[C@H](CO)C5)=NC4=O)ccc32)c(C(F)(F)F)c1` [Example 244, 5-({1-[4-(1-Hydroxy-1-methylethyl)-2-(trifluoromethyl)benzyl]-1H-indazol-5-yl}methylidene)-2-[2-(S)-(hydroxymethyl)morpholin-4-yl]-1,3-thiazol-4(5H)-one], a half-maximal response (EC50) required 110 nM.

`CC(C)(O)c1ccc(Cn2ncc3cc(/C=C4\SC(N5CCC(C(=O)O)CC5)=NC4=O)ccc32)c(C(F)(F)F)c1` [Example 245]: the EC50 came out at 235 nM.

In turn, `CC(C)(O)c1ccc(Cn2ncc3cc(/C=C4\SC(N5CCN[C@@H](CO)C5)=NC4=O)ccc32)c(C(F)(F)F)c1` [Example 246, 5-({1-[4-(1-Hydroxy-1-methylethyl)-2-(trifluoromethyl)benzyl]-1H-indazol-5-yl}methylidene)-2-[3-(R)-(hydroxymethyl)piperazin-1-yl]-1,3-thiazol-4(5H)-one] registered an EC50 of 230 nM.

In the case of `C=C(C)c1ccc(Cn2ncc3cc(/C=C4\SC(N5CCN[C@@H](CO)C5)=NC4=O)ccc32)c(C(F)(F)F)c1` [Example 247, 2-[3-(R)-(Hydroxymethyl)piperazin-1-yl]-5-({1-[4-(1-methylethenyl)-2-(trifluoromethyl)benzyl]-1H-indazol-5-yl}methylidene)-1,3-thiazol-4(5H)-one], a half-maximal effect (EC50) was put at 41 nM.

`COc1ccc(Cn2ncc3cc(/C=C4\SC(N5CCN[C@@H](CO)C5)=NC4=O)ccc32)c(C(F)(F)F)c1` [Example 248, 2-[3-(R)-(Hydroxymethyl)piperazin-1-yl]-5-({1-[4-methoxy-2-(trifluoromethyl)benzyl]-1H-indazol-5-yl}methylidene)-1,3-thiazol-4(5H)-one]: the EC50 came out at 14 nM.

`O=C1N=C(N2CCO[C@@H](CO)C2)S/C1=C\c1ccc2c(cnn2Cc2ccc(O)cc2C(F)(F)F)c1` [Example 249, 2-[(2R)-2-(Hydroxymethyl)morpholin-4-yl]-5-({1-[4-hydroxy-2-(trifluoromethyl)benzyl]-1H-indazol-5-yl}methylidene)-1,3-thiazol-4(5H)-one] came in with an EC50 of 4 nM.

`O=C1N=C(N2CCN[C@@H](CO)C2)S/C1=C\c1ccc2c(cnn2Cc2ccc(O)cc2C(F)(F)F)c1` [Example 250, 2-[(3R)-3-(Hydroxymethyl)piperazin-1-yl]-5-({1-[4-hydroxy-2-(trifluoromethyl)benzyl]-1H-indazol-5-yl}methylidene)-1,3-thiazol-4(5H)-one] returned a concentration for a half-maximal effect (EC50) of 190 nM.

The molecule `O=C1N=C(N2CCO[C@H](CO)C2)S/C1=C\c1ccc2c(cnn2Cc2ccc(O)cc2C(F)(F)F)c1` [Example 251, 2-[(2S)-2-(Hydroxymethyl)morpholin-4-yl]-5-({1-[4-hydroxy-2-(trifluoromethyl)benzyl]-1H-indazol-5-yl}methylidene)-1,3-thiazol-4(5H)-one] returned an EC50 of 4 nM.

Regarding `CN(C)[C@@H]1CCN(C2=NC(=O)/C(=C/c3ccc4c(cnn4Cc4ccc(C(F)(F)F)cc4C(F)(F)F)c3)S2)C1` [Example 252, 5-({1-[2,4-Bis(trifluoromethyl)benzyl]-1H-indazol-5-yl}methylidene)-2-[(3R)-3-(dimethylamino)pyrrolidin-1-yl]-1,3-thiazol-4(5H)-one], a half-maximal response (EC50) required 190 nM.

On to `CN1CCN(C2=NC(=O)/C(=C/c3ccc4c(cnn4Cc4ccc(C(F)(F)F)cc4C(F)(F)F)c3)S2)[C@@H](CO)C1` [Example 253, 5-({1-[2,4-Bis(trifluoromethyl)benzyl]-1H-indazol-5-yl}methylidene)-2-[(2R)-2-(hydroxymethyl)-4-methylpiperazin-1-yl]-1,3-thiazol-4(5H)-one], for which the response was half-maximal at 5 nM (EC50).

`CN1CCN(C2=NC(=O)/C(=C/c3ccc4c(cnn4Cc4ccc(Cl)cc4C(F)(F)F)c3)S2)[C@@H](CO)C1` [Example 254, 5-({1-[4-Chloro-2-(trifluoromethyl)benzyl]-1H-indazol-5-yl}methylidene)-2-[(2R)-2-(hydroxymethyl)-4-methylpiperazin-1-yl]-1,3-thiazol-4(5H)-one]: the EC50 was 6.5 nM.

In turn, `CC[C@H]1CNCCN1C1=NC(=O)/C(=C/c2ccc3c(cnn3Cc3ccc(Cl)cc3C(F)(F)F)c2)S1` [Example 255] registered a half-maximal effective concentration (EC50) of 28 nM.

As for `CC[C@H]1CN(C)CCN1C1=NC(=O)/C(=C/c2ccc3c(cnn3Cc3ccc(Cl)cc3C(F)(F)F)c2)S1` [Example 256, 5-({1-[4-Chloro-2-(trifluoromethyl)benzyl]-1H-indazol-5-yl}methylidene)-2-((2S)-2-ethyl-4-methylpiperazin-1-yl)-1,3-thiazol-4(5H)-one], it took 49 nM to reach a half-maximal effect (EC50).

Molecule `N[C@@H]1C[C@H](CO)N(C2=NC(=O)/C(=C/c3ccc4c(cnn4Cc4ccc(Cl)cc4C(F)(F)F)c3)S2)C1` [Example 257, 2-[(2R,4R)-4-Amino-2-(hydroxymethyl)pyrrolidin-1-yl]-5-({1-[4-chloro-2-(trifluoromethyl)benzyl]-1H-indazol-5-yl}methylidene)-1,3-thiazol-4(5H)-one] had a concentration giving a half-maximal response (EC50) of 96 nM.

The molecule `N[C@@H]1C[C@H](CO)N(C2=NC(=O)/C(=C/c3ccc4c(cnn4Cc4ccc(C(F)(F)F)cc4C(F)(F)F)c3)S2)C1` [Example 258, 2-[(2R,4R)-4-Amino-2-(hydroxymethyl)pyrrolidin-1-yl]-5-({1-[2,4-bis(trifluoromethyl)benzyl]-1H-indazol-5-yl}methylidene)-1,3-thiazol-4(5H)-one] had an EC50 of 30 nM.

The molecule `CC(=O)N[C@@H]1C[C@H](CO)N(C2=NC(=O)/C(=C/c3ccc4c(cnn4Cc4ccc(C(F)(F)F)cc4C(F)(F)F)c3)S2)C1` [Example 259, N-{1-[(3R,5R)-5-({1-[2,4-Bis(trifluoromethyl)benzyl]-1H-indazol-5-yl}methylidene)-4-oxo-4,5-dihydro-1,3-thiazol-2-yl]-5-(hydroxymethyl)pyrrolidin-3-yl}acetamide] came in with an EC50 of 30 nM.

For the molecule `O=C1N=C(N2C[C@H](NC(=O)C3CC3)C[C@@H]2CO)S/C1=C\c1ccc2c(cnn2Cc2ccc(C(F)(F)F)cc2C(F)(F)F)c1` [Example 260, N-{(3R,5R)-1-[5-({1-[2,4-Bis(trifluoromethyl)benzyl]-1H-indazol-5-yl}methylidene)-4-oxo-4,5-dihydro-1,3-thiazol-2-yl]-5-(hydroxymethyl)pyrrolidin-3-yl}cyclopropanecarboxamide], the EC50 came to 290 nM.

In the case of `CC(=O)N[C@@H]1C[C@H](CO)N(C2=NC(=O)/C(=C/c3ccc4c(cnn4Cc4ccc(Cl)cc4C(F)(F)F)c3)S2)C1` [Example 261, N-{(3R,5R)-1-[5-({1-[4-Chloro-2-(trifluoromethyl)benzyl]-1H-indazol-5-yl}methylidene)-4-oxo-4,5-dihydro-1,3-thiazol-2-yl]-5-(hydroxymethyl)pyrrolidin-3-yl}acetamide], the EC50 was found to be 20 nM.

`CC(C)N[C@@H]1C[C@H](CO)N(C2=NC(=O)/C(=C/c3ccc4c(cnn4Cc4ccc(C(F)(F)F)cc4C(F)(F)F)c3)S2)C1` [Example 262] registered an EC50 of 64 nM.

Take `CC(C)N[C@@H]1C[C@H](CO)N(C2=NC(=O)/C(=C/c3ccc4c(cnn4Cc4ccc(Cl)cc4C(F)(F)F)c3)S2)C1` [Example 263]: the midpoint of the response, the EC50, lay at 42 nM.

Usually EC50 stands for the concentration needed to bring the measured effect to its halfway point. The low end stands for a more potent agent, the high end for a less potent agent.
